Assay results published in publication PMC11356819 (Molecules, 2024).

Experiments:
[1] = lipophilicity by shake-flask method (n-octanol/water or PBS); format: physicochemical; details: triplicate
Experimental: As a measure for the lipophilicity of the four radiolabeled probes, their partition coefficients (logP) and distribution coefficients at pH 7.4 (logD7.4) were determined by the shake-flask method. Table 1 summarizes the results of these experiments and compares them with the predicted logD7.4 values calculated using the ADMETlab platform.
A solution of the corresponding radiotracer in DMSO (1 µL) was added to a mixture of n-octanol and PBS (pH = 7.4) or water (750 µL of each) in a 2 mL Eppendorf vial and the vial was vortexed for 2 min and centrifuged for another 2 min to separate the two phases. A total of 300 µL of the upper n-octanol phase was then carefully removed from the top, while 300 µL of the aqueous phase was removed by piercing the bottom of the vial with a syringe and cannula to avoid contact with the organic phase. Both fractions were transferred into fresh vials and counted in a gamma counter to determine the ratio between the activity in the organic and the aqueous phase. All measurements were performed in triplicate and the results are expressed as mean ± standard deviation of the logarithm of the partition coefficient between n-octanol and water (logP) or the logarithm of the distribution coefficient between n-octanol and PBS (logD7.4), respectively.

U87-mIDH cells = experiment: cellular uptake in U87-mIDH cells; format: cell-based, human
Experimental: (§1) Consistent with this assumption, uptake of [^18F]4 and, to a lesser extent, the ^18F-fluoroethoxylated analog [^18F]5 by both cell lines was considerably higher than that of (S)-[^18F]2.
(§2) Human glioblastoma cells with a c.395G>A knock-in mutation encoding mIDH1R132H (HTB-14IG™) and the corresponding wildtype cells (HTB-14™) were purchased from the American Type Culture Collection (ATCC). The cells were grown under standard culture conditions (5% CO2 and 95% air at 37 °C) in Eagle’s Minimum Essential Medium (MEM) supplemented with 10% fetal bovine serum (FBS) and antibiotics (penicillin–streptomycin mixed solution, Gibco, Thermo Fisher Scientific, Oberhausen, Germany).
(§3) For the cellular uptake studies, 1.5 × 10^5 cells were seeded into gelatin-coated 12-well transwell plates and incubated in 1 mL MEM (without FBS and antibiotics) containing 18.5 kBq (0.5 µCi) of the corresponding radiotracer. After incubation at 21 °C for 1 h, the supernatant was collected, the cells were lysed with 40 mM NaOH and the radioactivity of both fractions was measured with a gamma counter. The total protein concentration of the cell lysate was measured by a bicinchoninic acid (BCA) assay. The radiotracer uptake was calculated as the ratio of radioactivity in the cell fraction and the supernatant and normalized by protein content (% uptake/100 µg protein). Statistical analysis of the results was performed with Originlab Pro 2023b using two-tailed t-tests with a significance level of 0.05 to identify significant differences between groups.

U87-WT cells = experiment: cellular uptake in U87-WT cells; format: cell-based, human; details: incubation 1 h
Experimental: as §1, §2, §3

U87-WT tumors = experiment: PET imaging and 2TCM kinetic modelling of subcutaneous U87-WT tumors; format: in vivo
Description: The in vivo tumor uptake and mIDH selectivity of [^18F]4 were investigated by small animal PET imaging in CB17-SCID mice bearing subcutaneous U87-WT and U87-mIDH tumors, which were implanted in the right and left shoulder region, respectively (Figure 6).
Although the use of an image-derived input function instead of an invasive arterial input function could introduce some degree of systematic bias (due to, e.g., a lack of correction for spill-over and metabolism), this should affect the parameter estimation for both tumors in a given animal in the same manner and therefore have little impact on inter-tumor comparisons.
Six male CB17-SCID mice (24–26 g) were used for the subcutaneous tumor model. Twenty-four hours before tumor implantation, the animals were injected (i.p.) with 20 µL anti-asialo GM1 rabbit (Fujifilm Wako Chemicals Europe GmbH, Neuss, Germany) in 0.9% NaCl (total volume: 100 µL) to promote tumor cell survival and growth through a temporary reduction in natural killer cell activity. For tumor inoculation, suspensions of 5 × 10^6 tumor cells in 75 µL culture medium and 75 µL Corning Matrigel (Merck, Darmstadt, Germany) were injected subcutaneously into the right (U87-WT cells) and left (U87-mIDH cells) shoulder region.
The mice were anesthetized with isoflurane (5% for induction, 2% for maintenance) in O2/air (3:7), and a catheter for tracer injection was inserted into the lateral tail vein. They were placed on an animal holder (Medres, Cologne, Germany) and fixed with a tooth bar in a respiratory mask. Body temperature was maintained at 37 °C by warming the animal bed. Eyes were protected from drying with Bepanthen eye and nose ointment (Bayer, Leverkusen, Germany). Respiratory rate was monitored and maintained at around 40–60 breaths per minute by adjusting the isoflurane concentration. A PET scan in list mode was conducted using a Focus 220 micro PET scanner (CTI-Siemens, Erlangen, Germany) with a resolution at the center of the field of view of 1.4 mm. Data acquisition started with intravenous tracer injection and ended after 120 min. This was followed by a 10 min transmission scan using a ^57Co point source for attenuation correction. After the scan was completed, the catheter was removed and the animals were allowed to wake up in their home cage. Data were histogrammed in three ways: (1) 4 × 30 min frames for visual display, (2) 28 frames (2 × 1 min, 2 × 2 min, 6 × 4 min, 18 × 5 min) for determination of time–activity curves, (3) 53 frames (12 × 10 s, 6 × 30 s, 15 × 1 min, 20 × 5 min) for kinetic modelling. Full 3D rebinning was followed by an iterative OSEM3D/MAP reconstruction algorithm with attenuation and decay correction. The resulting voxel sizes were 0.47 mm × 0.47 mm × 0.80 mm.

With `COc1cc(NCc2cc3cc([18F])ccc3[nH]c2=O)ccc1C#N` [[^18F]4] the logD ([1]; n-octanol/PBS pH 7.4, shake-flask, read-out: logD7.4 Exp. Determined) was 2.67 ± 0.04, the logP ([1]; n-octanol/water, shake-flask, read-out: logP) was 2.5 ± 0.03 and the “fold higher cellular uptake than (S)-[^18F]2” value (U87-mIDH cells; U87-mIDH and U87-WT cells) was 5−8 fold. For the same compound, the cellular uptake (U87-mIDH cells; U87-mIDH cells, incubation 1 h) was 6.0 ± 2.0 % per 100 µg protein, the cellular uptake (U87-WT cells) was 4.7 ± 1.4 % per 100 µg protein and the “Ratio (WT/mIDH) of SUVbw” value (U87-WT tumors; 0–30 min) was 1.1. For the same compound, the “SUVbw U87-WT” value (U87-WT tumors; 0–30 min) was 35 ± 4, the “Ratio (WT/mIDH) of SUVbw” value (U87-WT tumors; 30–60 min) was 1.7 and the “SUVbw U87-WT” value (U87-WT tumors; 30–60 min) was 42 ± 9. For the same compound, the “Ratio (WT/mIDH) of SUVbw” value (U87-WT tumors; 60–90 min) was 1.9, the “SUVbw U87-WT” value (U87-WT tumors; 60–90 min) was 36 ± 10 and the “Ratio (WT/mIDH) of SUVbw” value (U87-WT tumors; 90–120 min) was 1.9. The “SUVbw U87-WT” value (U87-WT tumors; 90–120 min) was 30 ± 10, the K1 (U87-WT tumors; U87-WT tumor, 2TCM, n = 5) was 0.174 ± 0.068 mL/ccm/min and the K1/k2 (U87-WT tumors; U87-WT tumor, 2TCM, n = 5) was 0.345 ± 0.172 mL/ccm. The “VS (specific distribution volume)” value (U87-WT tumors; U87-WT tumor, 2TCM, n = 5) was 0.576 ± 0.143 mL/ccm, the “VT (total distribution volume)” value (U87-WT tumors; U87-WT tumor, 2TCM, n = 5) was 0.921 ± 0.250 mL/ccm and the k2 (U87-WT tumors; U87-WT tumor, 2TCM, n = 5) was 0.553 ± 0.238 min⁻¹. For the same compound, the k3 (U87-WT tumors; U87-WT tumor, 2TCM, n = 5) was 0.089 ± 0.059 min⁻¹, the “k3/k4, BPND (non-displaceable binding potential)” value (U87-WT tumors; U87-WT tumor, 2TCM, n = 5) was 1.874 ± 0.653 1/1 and the k4 (U87-WT tumors; U87-WT tumor, 2TCM, n = 5) was 0.044 ± 0.022 min⁻¹. For the same compound, the “max. SUVbw U87-WT tumors” value (U87-WT tumors; after 38 min, n = 3) was 45 ± 8.
